Read-outs that look alike come from different tables or passages of the source.
Legend:
[1] = test system: MOLT-4; assay: Cell viability assay (MTS) in MOLT-4 cells; type: cell-based; conditions: Homo sapiens
Procedure: (§1) Acute lymphoblastic leukemia cells (MOLT-4 and RS4; 11) were incubated with increasing concentrations of Bcl-xL degraders for 48 h. Cell viability was measured by tetrazolium-based MTS assay.

[2] = test system: RS4; 11; assay: Cell viability assay (MTS) in RS4; 11 cells; type: cell-based; conditions: Homo sapiens
Procedure: as §1

[3] = MOLT-4, Table 2, 48 hr, MTS, read-out: Anti-Cancer Activity IC50 (48 hr) MOLT-4
[4] = MOLT-4, Table 5, 48 h, read-out: MOLT-4 48 h IC50
[5] = RS4-11, Table 2, 48 hr, MTS, read-out: Anti-Cancer Activity IC50 (48 hr) RS4, 11
[6] = RS4-11, Table 5, 48 h, read-out: RS4 48 h IC50

## Cc1ncsc1-c1ccc([C@H](C)NC(=O)[C@@H]2C[C@@H](O)CN2C(=O)[C@@H](NC(=O)CN2CCC(CN3CCN(CC4(C)CCC(c5ccc(Cl)cc5)=C(CN5CCN(c6ccc(C(=O)NS(=O)(=O)c7ccc(N[C@H](CCN8CCOCC8)CSc8ccccc8)c(S(=O)(=O)C(F)(F)F)c7)cc6)CC5)C4)CC3)CC2)C(C)(C)C)cc1 (stereo partly drawn) [Compound 16, (2S,4R)-1-((2S)-2-(2-(4-((4-((4′-chloro-4-methyl-6-((4-(4-(((4-(((R)-4-morpholino-1-(phenylthio)butan-2-yl)amino)-3-((trifluoromethyl)sulfonyl)phenyl)sulfonyl)carbamoyl)phenyl)piperazin-1-yl)methyl)-2,3,4,5-tetrahydro-[1,1′-biphenyl]-4-yl)methyl)piperazin-1-yl)methyl)piperidin-1-yl)acetamido)-3,3-dimethylbutanoyl)-4-hydroxy-N—((S)-1-(4-(4-methylthiazol-5-yl)phenyl)ethyl)pyrrolidine-2-carboxamide]
[1]; [3]
  IC50: < 20 nM
[1]; [4]
  IC50: 12.7 nM
[2]; [5]
  IC50: 20 to 100 nM
[2]; [6]
  IC50: 42.8 nM

## Cc1ncsc1-c1ccc([C@H](C)NC(=O)[C@@H]2C[C@@H](O)CN2C(=O)[C@@H](NC(=O)CC(=O)N2CCN(CC3CCN(CC4(C)CCC(c5ccc(Cl)cc5)=C(CN5CCN(c6ccc(C(=O)NS(=O)(=O)c7ccc(N[C@H](CCN8CCOCC8)CSc8ccccc8)c(S(=O)(=O)C(F)(F)F)c7)cc6)CC5)C4)CC3)CC2)C(C)(C)C)cc1 (some centres unmarked) [Compound 17]
[1]; [3]
  IC50: 100 to 500 nM
[2]; [5]
  IC50: 20 to 100 nM

## Cc1ncsc1-c1ccc([C@H](C)NC(=O)[C@@H]2C[C@@H](O)CN2C(=O)[C@@H](NC(=O)CCCC(=O)N2CCN(CC3CCN(CC4(C)CCC(c5ccc(Cl)cc5)=C(CN5CCN(c6ccc(C(=O)NS(=O)(=O)c7ccc(N[C@H](CCN8CCOCC8)CSc8ccccc8)c(S(=O)(=O)C(F)(F)F)c7)cc6)CC5)C4)CC3)CC2)C(C)(C)C)cc1 (some centres unmarked) [Compound 18]
[1]; [3]
  IC50: 20 to 100 nM
[2]; [5]
  IC50: 20 to 100 nM

## Cc1ncsc1-c1ccc([C@H](C)NC(=O)[C@@H]2C[C@@H](O)CN2C(=O)[C@@H](NC(=O)CCCCCC(=O)N2CCN(CC3CCN(CC4(C)CCC(c5ccc(Cl)cc5)=C(CN5CCN(c6ccc(C(=O)NS(=O)(=O)c7ccc(N[C@H](CCN8CCOCC8)CSc8ccccc8)c(S(=O)(=O)C(F)(F)F)c7)cc6)CC5)C4)CC3)CC2)C(C)(C)C)cc1 (some centres unmarked) [Compound 19]
[1]; [3]
  IC50: < 20 nM
[2]; [5]
  IC50: 20 to 100 nM

## Cc1ncsc1-c1ccc([C@H](C)NC(=O)[C@@H]2C[C@@H](O)CN2C(=O)[C@@H](NC(=O)CCCCCOCc2cn(CC3(C)CCC(c4ccc(Cl)cc4)=C(CN4CCN(c5ccc(C(=O)NS(=O)(=O)c6ccc(N[C@H](CCN7CCOCC7)CSc7ccccc7)c(S(=O)(=O)C(F)(F)F)c6)cc5)CC4)C3)nn2)C(C)(C)C)cc1 (stereo partly drawn) [Compound 20, (2S,4R)-1-((2S)-2-(6-((1-((4′-chloro-4-methyl-6-((4-(4-(((4-(((R)-4-morpholino-1-(phenylthio)butan-2-yl)amino)-3-((trifluoromethyl)sulfonyl)phenyl)sulfonyl)carbamoyl)phenyl)piperazin-1-yl)methyl)-2,3,4,5-tetrahydro-[1,1′-biphenyl]-4-yl)methyl)-1H-1,2,3-triazol-4-yl)methoxy)hexanamido)-3,3-dimethylbutanoyl)-4-hydroxy-N—((S)-1-(4-(4-methylthiazol-5-yl)phenyl)ethyl)pyrrolidine-2-carboxamide]
[1]; [3]
  IC50: 20 to 100 nM
[1]; [4]
  IC50: 88.1 nM
[2]; [5]
  IC50: < 20 nM
[2]; [6]
  IC50: 15.6 nM

## Cc1ncsc1-c1ccc([C@H](C)NC(=O)[C@@H]2C[C@@H](O)CN2C(=O)[C@@H](NC(=O)COCCOCc2cn(CC3(C)CCC(c4ccc(Cl)cc4)=C(CN4CCN(c5ccc(C(=O)NS(=O)(=O)c6ccc(N[C@H](CCN7CCOCC7)CSc7ccccc7)c(S(=O)(=O)C(F)(F)F)c6)cc5)CC4)C3)nn2)C(C)(C)C)cc1 (stereo partly drawn) [Compound 21, (2S,4R)-1-((2S)-2-(2-(2-((1-((4′-chloro-4-methyl-6-((4-(4-(((4-(((R)-4-morpholino-1-(phenylthio)butan-2-yl)amino)-3-((trifluoromethyl)sulfonyl)phenyl)sulfonyl)carbamoyl)phenyl)piperazin-1-yl)methyl)-2,3,4,5-tetrahydro-[1,1′-biphenyl]-4-yl)methyl)-1H-1,2,3-triazol-4-yl)methoxy)ethoxy)acetamido)-3,3-dimethylbutanoyl)-4-hydroxy-N—((S)-1-(4-(4-methylthiazol-5-yl)phenyl)ethyl)pyrrolidine-2-carboxamide]
[1]; [3]
  IC50: 100 to 500 nM
[2]; [5]
  IC50: 20 to 100 nM

## Cc1ncsc1-c1ccc([C@H](C)NC(=O)[C@@H]2C[C@@H](O)CN2C(=O)[C@@H](NC(=O)CCCCCOCc2cn(CCCC(=O)NCC3(C)CCC(c4ccc(Cl)cc4)=C(CN4CCN(c5ccc(C(=O)NS(=O)(=O)c6ccc(N[C@H](CCN7CCOCC7)CSc7ccccc7)c(S(=O)(=O)C(F)(F)F)c6)cc5)CC4)C3)nn2)C(C)(C)C)cc1 (some centres unmarked) [Compound 22]
[1]; [3]
  IC50: 100 to 500 nM
[2]; [5]
  IC50: 100 to 500 nM

## Cc1ncsc1-c1ccc([C@H](C)NC(=O)[C@@H]2C[C@@H](O)CN2C(=O)[C@@H](NC(=O)COCCOCc2cn(CCCC(=O)NCC3(C)CCC(c4ccc(Cl)cc4)=C(CN4CCN(c5ccc(C(=O)NS(=O)(=O)c6ccc(N[C@H](CCN7CCOCC7)CSc7ccccc7)c(S(=O)(=O)C(F)(F)F)c6)cc5)CC4)C3)nn2)C(C)(C)C)cc1 (some centres unmarked) [Compound 23]
[1]; [3]
  IC50: 500 to 10000 nM
[2]; [5]
  IC50: 500 to 10000 nM

## Cc1ncsc1-c1ccc([C@H](C)NC(=O)[C@@H]2C[C@@H](O)CN2C(=O)[C@@H](NC(=O)CN2CCN(CC(=O)N3CCN(CC4(C)CCC(c5ccc(Cl)cc5)=C(CN5CCN(c6ccc(C(=O)NS(=O)(=O)c7ccc(N[C@H](CCN8CCOCC8)CSc8ccccc8)c(S(=O)(=O)C(F)(F)F)c7)cc6)CC5)C4)CC3)CC2)C(C)(C)C)cc1 (some centres unmarked) [Compound 25]
[1]; [3]
  IC50: < 20 nM
[2]; [5]
  IC50: < 20 nM

## Cc1ncsc1-c1ccc([C@H](C)NC(=O)[C@@H]2C[C@@H](O)CN2C(=O)[C@@H](NC(=O)CC2CCN(CC(=O)N3CCN(CC4(C)CCC(c5ccc(Cl)cc5)=C(CN5CCN(c6ccc(C(=O)NS(=O)(=O)c7ccc(N[C@H](CCN8CCOCC8)CSc8ccccc8)c(S(=O)(=O)C(F)(F)F)c7)cc6)CC5)C4)CC3)CC2)C(C)(C)C)cc1 (some centres unmarked) [Compound 27]
[1]; [3]
  IC50: 100 to 500 nM
[2]; [5]
  IC50: 100 to 500 nM

## Cc1ncsc1-c1ccc([C@H](C)NC(=O)[C@@H]2C[C@@H](O)CN2C(=O)[C@@H](NC(=O)CCCCCCC(=O)N2CCN(CCC3(C)CCC(c4ccc(Cl)cc4)=C(CN4CCN(c5ccc(C(=O)NS(=O)(=O)c6ccc(N[C@H](CCN7CCOCC7)CSc7ccccc7)c(S(=O)(=O)C(F)(F)F)c6)cc5)CC4)C3)CC2)C(C)(C)C)cc1 (stereo partly drawn) [Compound 28, (2S,4R)-1-((2S)-2-(8-(4-(2-(4′-chloro-4-methyl-6-((4-(4-(((4-(((R)-4-morpholino-1-(phenylthio)butan-2-yl)amino)-3-((trifluoromethyl)sulfonyl)phenyl)sulfonyl)carbamoyl)phenyl)piperazin-1-yl)methyl)-2,3,4,5-tetrahydro-[1,1′-biphenyl]-4-yl)ethyl)piperazin-1-yl)-8-oxooctanamido)-3,3-dimethylbutanoyl)-4-hydroxy-N—((S)-1-(4-(4-methylthiazol-5-yl)phenyl)ethyl)pyrrolidine-2-carboxamide]
[1]; [3]
  IC50: 100 to 500 nM
[2]; [5]
  IC50: 20 to 100 nM

## Cc1ncsc1-c1ccc([C@H](C)NC(=O)[C@@H]2C[C@@H](O)CN2C(=O)[C@@H](NC(=O)CCCCCCCC(=O)N2CCN(CCC3(C)CCC(c4ccc(Cl)cc4)=C(CN4CCN(c5ccc(C(=O)NS(=O)(=O)c6ccc(N[C@H](CCN7CCOCC7)CSc7ccccc7)c(S(=O)(=O)C(F)(F)F)c6)cc5)CC4)C3)CC2)C(C)(C)C)cc1 (stereo partly drawn) [Compound 29, (2S,4R)-1-((2S)-2-(9-(4-(2-(4′-chloro-4-methyl-6-((4-(4-(((4-(((R)-4-morpholino-1-(phenylthio)butan-2-yl)amino)-3-((trifluoromethyl)sulfonyl)phenyl)sulfonyl)carbamoyl)phenyl)piperazin-1-yl)methyl)-2,3,4,5-tetrahydro-[1,1′-biphenyl]-4-yl)ethyl)piperazin-1-yl)-9-oxononanamido)-3,3-dimethylbutanoyl)-4-hydroxy-N—((S)-1-(4-(4-methylthiazol-5-yl)phenyl)ethyl)pyrrolidine-2-carboxamide]
[1]; [3]
  IC50: 100 to 500 nM
[2]; [5]
  IC50: 20 to 100 nM

## Cc1ncsc1-c1ccc([C@H](C)NC(=O)[C@@H]2C[C@@H](O)CN2C(=O)[C@@H](NC(=O)CCCCCCCCC(=O)N2CCN(CCC3(C)CCC(c4ccc(Cl)cc4)=C(CN4CCN(c5ccc(C(=O)NS(=O)(=O)c6ccc(N[C@H](CCN7CCOCC7)CSc7ccccc7)c(S(=O)(=O)C(F)(F)F)c6)cc5)CC4)C3)CC2)C(C)(C)C)cc1 (stereo partly drawn) [Compound 30, (2S,4R)-1-((2S)-2-(10-(4-(2-(4′-chloro-4-methyl-6-((4-(4-(((4-(((R)-4-morpholino-1-(phenylthio)butan-2-yl)amino)-3-((trifluoromethyl)sulfonyl)phenyl)sulfonyl)carbamoyl)phenyl)piperazin-1-yl)methyl)-2,3,4,5-tetrahydro-[1,1′-biphenyl]-4-yl)ethyl)piperazin-1-yl)-10-oxodecanamido)-3,3-dimethylbutanoyl)-4-hydroxy-N—((S)-1-(4-(4-methylthiazol-5-yl)phenyl)ethyl)pyrrolidine-2-carboxamide]
[1]; [3]
  IC50: 100 to 500 nM
[2]; [5]
  IC50: 20 to 100 nM

## Cc1ncsc1-c1ccc([C@H](C)NC(=O)[C@@H]2C[C@@H](O)CN2C(=O)[C@@H](NC(=O)CN2C3CC2CN(CC(=O)N2CCN(CC4(C)CCC(c5ccc(Cl)cc5)=C(CN5CCN(c6ccc(C(=O)NS(=O)(=O)c7ccc(N[C@H](CCN8CCOCC8)CSc8ccccc8)c(S(=O)(=O)C(F)(F)F)c7)cc6)CC5)C4)CC2)C3)C(C)(C)C)cc1 (some centres unmarked) [Compound 31]
[1]; MOLT-4, 48 h, read-out: Anti-Cancer Activity IC50 (48 hr) MOLT-4
  IC50: 100 to 500 nM
[2]; RS4-11, 48 h, read-out: Anti-Cancer Activity IC50 (48 hr) RS4, 11
  IC50: 100 to 500 nM

— patent US20250154141A1 (University of Florida Research Foundation, Incorporated, priority 2021, published 2025)
